Test results as given in patent US10799467B2, “Use of the phytocannabinoid cannabidivarin (CBDV) in the treatment of epilepsy” (GW Pharma Limited, priority 2010, dated 2020).

How the values were obtained:
PTZ-induced seizures [1] = test: PTZ model of generalised seizures (80 mg/kg PTZ); format: in vivo, Wistar rats; conditions: for proportion of animals that died / proportion of animals reaching tonic-clonic seizures: vehicle 8 of 15
Protocol: Male Wistar rats (P24-29; 75-110 g) were used to assess the effects of the phytocannabinoid CBDV in the PTZ model of generalised seizures. Animals were habituated to the test environment, cages, injection protocol and handling prior to experimentation. Animals were housed in a room at 21° C. on a 12 hour light: dark cycle (lights on 0900) in 50% humidity, with free access to food and water.
Five 6 L Perspex tanks with lids were placed on a single bench with dividers between them. Closed-circuit television (CCTV) cameras were mounted onto the dividers to observe rat behaviour. Sony Topica CCD cameras (Bluecherry, USA) were linked via BNC cables to a low-noise PC via Brooktree digital capture cards (Bluecherry, USA). Zoneminder (http://www.zoneminder.com) software was used to monitor rats, start and end recordings and manage video files. In-house Linux scripts were used to encode video files into a suitable format for further offline analysis using The Observer (Noldus Technologies).
A range of doses of PTZ (50-100 mg/kg body weight) were used to determine the best dose for induction of seizures (see below). As a result, a dose of 80 mg/kg injected intra-peritoneally (IP; stock solution 50 mg/ml in 0.9% saline) were used to screen the CBDV.
On the day of testing, pure CBDV was administered via intra-peritoneal (i.p.) injection at doses of 50, 100 and 200 mg/kg alongside animals that were injected with a matched volume of the cannabinoid vehicle (2:1:17 ethanol:Cremophor: 0.9% w/v NaCl solution), which served as the negative control group. Animals were then observed for 1 hour, after which time they received an IP injection of 80 mg/kg PTZ. Negative vehicle controls were performed in parallel with cannabinoid-dosed subjects. After receiving a dose of PTZ, animals were observed and videoed to determine the severity of seizure and latency to several seizure behaviour types (see in vivo analysis, below). Animals were filmed for half an hour after last sign of seizure, and then returned to their cage.
Animals were observed during experimental procedures, but all analysis was performed offline on recorded video files using The Observer behavioural analysis software (Noldus, Netherlands). A seizure severity scoring system was used to determine the levels of seizure experienced by subjects (Pohl & Mares, 1987). All signs of seizure were detailed for all animals.
The latency (in seconds) from injection of PTZ to first myoclonic jerk (FMJ; score of 1), and to the animal attaining “forelimb clonus with tonic component and body twist” (score of 3.5) were recorded. FMJ is an indicator of the onset of seizure activity, whilst >90% of animals developed scores of 3.5, and so is a good marker of the development of more severe seizures. Data are presented as the mean±S.E.M. within an experimental group.
This is given as the median value for each experimental group based on the scoring scale below.
The percentage of animals within an experimental group that died as a result of PTZ-induced seizures. Note that the majority of animals that developed tonic-clonic seizures (scores of 4 and 5) died as a result, and that a score of 6 (death) automatically denotes that the animal also experienced tonic-clonic seizures.
This is given as the mean±S.E.M. for each experimental group.
For measures of latency and severity, one way analysis of variance (ANOVA) was performed on the four groups together (vehicle and 50, 100 and 200 mg/kg CBDV) to detect overall effects of CBDV (p≤0.05 considered significant).
Significant ANOVA results were followed by post hoc tests to test differences between vehicle and drug groups (Tukey's test, p≤0.05 considered significant).
Methodology as described in Example 2.
General methodology is as described in Example 2.
Three doses of THCV BDS were assessed against a concentration of PTZ known to induce moderate seizures in rats (70 mg/kg; see pilot, above). […]

PTZ-induced seizures [2] = test: CBDV with standard anti-epileptic drugs in the PTZ model of generalised seizures; format: in vivo, Wistar rats
Protocol: As described in Example 2 above. Varying doses of the SAED's ethosuximide and valproate were tested in combination to isolated CBDV at a dose of 200 mg/kg.

[3] = tested on: epileptiform burst activity in hippocampal slices (Mg2+-free model); test: Mg2+-free in vitro epileptiform model in hippocampal brain slices (multi-electrode array); format: cell-based, Wistar rats
Protocol: Use of isolated CBDV in two in vitro epileptiform models in hippocampal brain slices
Hippocampal slices were produced acutely from P>21 Wistar rats and activity recorded by multi-electrode arrays (MEA).
To induce epileptiform activity, either Mg^2+ was removed (Mg^2+-free model) or 100 μM 4-aminopyridine was added (4-AP model). 30 min after epileptiform burst activity was established, CBDV was added cumulatively (1, 10, 100 μM; 30 min each).
The effects of CBDV on epileptiform burst amplitude and duration were measured (Table 2.1).

[4] = valproate (varying doses) co-administered with CBDV 200 mg/kg

## C=C(C)[C@@H]1CCC(C)=C[C@H]1c1c(O)cc(CCC)cc1O [CBDV, Cannabidivarin]
PTZ-induced seizures [1]; 100 mg/kg CBDV i.p., 80 mg/kg PTZ, p=0.002
  proportion of animals that died: 1 out of 15
PTZ-induced seizures [1]; 100 mg/kg CBDV i.p., 80 mg/kg PTZ, p=0.036
  proportion of animals reaching tonic-clonic seizures: 4 of 15
PTZ-induced seizures [1]; 200 mg/kg CBDV i.p. 1 hour before 80 mg/kg PTZ, p=0.03
  latency to seizure onset vs vehicle: significantly higher
PTZ-induced seizures [1]; 200 mg/kg CBDV i.p., 80 mg/kg PTZ, p=0.014
  median seizure severity vs vehicle: significantly lower
PTZ-induced seizures [1]; 200 mg/kg CBDV i.p., 80 mg/kg PTZ, p=0.032
  latency to clonic seizures vs vehicle: significant increase
PTZ-induced seizures [1]; 200 mg/kg CBDV i.p., 80 mg/kg PTZ, vehicle 1 of 15, p=0.003
  animals that experienced no seizure at all: 5 of 15
PTZ-induced seizures [1]; 200 mg/kg CBDV i.p., 80 mg/kg PTZ, p<0.001
  proportion of animals that died: 2 out of 15
PTZ-induced seizures [1]; 200 mg/kg CBDV i.p., 80 mg/kg PTZ, p=0.01
  proportion of animals reaching tonic-clonic seizures: 3 of 15
PTZ-induced seizures [1]; overall or at any specific dose (50, 100, 200 mg/kg CBDV i.p.), 80 mg/kg PTZ
  latency to tonic-clonic seizures: No significant effect
PTZ-induced seizures [2]; CBDV 200 mg/kg
  severity of the epilepsy, CBDV compared with SAED: lessen the severity of the epilepsy to a greater degree than the existing epileptic drug valproate
PTZ-induced seizures [2]; [4]
  mortality (independent effect when co-administered): significant decreases
  onset latency (independent effect when co-administered): significant decreases
  seizure severity (independent effect when co-administered): significant decreases
[3]; CBDV 1 μM
  Burst amplitude (% of control) CA1: 82.23 ± 10.4 % of control
  Burst duration (% of control) CA1: 99.3 ± 4.5 % of control
  Burst amplitude (% of control) CA3: 112.7 ± 13.7 % of control
  Burst duration (% of control) CA3: 101.7 ± 2.3 % of control
  Burst amplitude (% of control) DG: 89.8 ± 8.6 % of control
  Burst duration (% of control) DG: 90.6 ± 4.5 % of control
[3]; CBDV 10 μM
  Burst amplitude (% of control) CA1: 79.9 ± 6.9 % of control
  Burst duration (% of control) CA1: 91.2 ± 3.8 % of control
  Burst amplitude (% of control) CA3: 104.8 ± 10.3 % of control
  Burst duration (% of control) CA3: 93.9 ± 4.1 % of control
  Burst amplitude (% of control) DG: 86.4 ± 3.6 % of control
  Burst duration (% of control) DG: 92.0 ± 3.2 % of control
[3]; CBDV 100 μM
  Burst amplitude (% of control) CA1: 80.4 ± 8.0 % of control
  Burst duration (% of control) CA1: 74.0 ± 5.8 % of control
  Burst amplitude (% of control) CA3: 102.9 ± 13.0 % of control
  Burst duration (% of control) CA3: 78.5 ± 6.6 % of control
  Burst amplitude (% of control) DG: 79.5 ± 5.6 % of control
  Burst duration (% of control) DG: 75.6 ± 5.4 % of control
